In patent publication US20210395327A1, “Growth Hormone-Releasing Hormone Antagonists and Uses Thereof” (United States Government As Represented By The Department …, priority 2019, published 2021):
Non-standard residues stand in square brackets, D forms with d. Residues, ends and D or L forms follow the SMILES beside them. *: point of attachment. Phenylacetyl(2,3,4,5,6-F5) = O=C(Cc1c(F)c(F)c(F)c(F)c1F)*; Phe(F5) = N[C@@H](Cc1c(F)c(F)c(F)c(F)c1F)C(=O)O; hArg = N=C(N)NCCCC[C@H](N)C(=O)O; 12Ado = NCCCCCCCCCCCC(=O)O; Nle = CCCC[C@H](N)C(=O)O; Abu = CC[C@H](N)C(=O)O

How the values were obtained:
[1] = tested on: HCC827 lung cancer cells; assay: In vitro cell viability, HCC827; type: cell-based, human
Outline: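 Human tumour lines were exposed to GHRH antagonist at 1, 2.5 or 5 μM for 72 h with medium refreshed every 48 h, after 24 h in low-serum (0.5% FBS) medium. Cell viability (CellTiter 96) was expressed as inhibition relative to MIA602.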

[2] = tested on: GH release from rat pituitary cells; assay: Inhibition of GH release from rat pituitary cells in vitro (GH ELISA); type: cell-based
Experimental: In vitro assessment of the antagonistic activity of GHRH analogs. Rats were decapitated and pituitaries were collected in pre-warmed HBSS (Hanks' Balanced Salt Solution). Tissue was then cut into small pieces and digested in HBSS medium containing 3% BSA, 50 μg/ml gentamycin and 0.5% collagenase for 50 minutes at 37° C. Cells were further dispersed by pipetting and passed through a 100 μm cell strainer with the addition of DMEM containing 50 μg/ml gentamycin. 10% horse serum and 2.5% FBS (growth medium). Cells were harvested at 475×g for 2 minutes, resuspended in fresh growth medium and seeded onto poly-D-lysine-coated 24-well plates (7 pituitaries/plate). Cells were left to recover for 4 days. Growth medium was then replaced with serum-free DMEM for 4 hours and GHRH analogs (at concentration of 20 nM) were added in DMEM containing 0.1% BSA for 30 minutes. Cells were replenished with medium containing the same concentration of the analogs and 1 nM GHRH(1-29)NH2 for 30 minutes. Medium from this step was collected, centrifuged at 800 g for 3 minutes and GH concentration was determined by ELISA (ALPCO Diagnostics, Mill Valley, Calif.) according to the manufacturer's instruction.

[3] = tested on: stomach cancer N87 xenograft; assay: Xenograft tumor growth in nude mice, N87; type: in vivo; conditions: 2 μg/day s.c.; for % Inhibition: vs control
Experimental: The peptides' activity was compared with GHRH antagonist MIA-602. All statistical analyzses were performed from comparing GHRA antagonists to non-treated tumor (control).
Peptides and chemicals. GHRH antagonists MIA-602 and AVR-GHRH antagonists (see Table 2 above) were synthesized by solid phase methods and purified by HPLC. The peptides were dissolved in DMSO and further diluted in 10% 1,2-propanediol. The final concentration of peptides was 50 µg/ml in 10% 1,2-propanediol containing 0.1% of DMSO.
Cell culture. Human cancer cell lines including pancreatic (PANC-1 and CFPAC-1), lung (HCC827 and H460), stomach (NCI-N87), prostate (PC3), brest (MX-1 and HCC-1806), colorectal (HT-29), and ovarian (SK-OV-3 and OVCAR-3) were obtained from the American Type Culture Collection (ATCC) and cultured at 37° C. in a humidified 95% air/5% CO2 atmosphere in the medium recommended by ATCC.
Xenograft models of human cancers in nude mice. Female athymic (NCr nu/nu) nude mice, 5- to 6-weeks-old, obtained from the Envigo labs (Tampa, Fla.), were housed in laminar airflow cabinets under pathogen-free conditions with a 12-h light/12-h dark schedule, and were fed autoclaved standard chow and water. To generate mice with xenografted tumors, tumor xenografts were initiated by subcutaneous (s.c.) injection of 107 human cancer cells into female nude mice. After about 4 weeks the resulting tumors were dissected and collected after removing necrosis tissues. The tumors were then cut into particles with size of 3 mm3 and transplanted s.c. by trocar needle into experimental animals. When tumors grew to the size of 50-60 mm3 (by volume), […] of 5 μg of GHRH antagonists MIA-602 or AVR-compounds (2-10 μg as indicated), or vehicle solutions (0.1% DMSO in 10% 1,2-propanediol) respectively. Tumor sizes were measured weekly.
Statistical analysis. One-way ANOVA followed by Bonferroni comparison were performed. Data are expressed as Mean±SEM. To determine statistical significance between animal groups, two-tailed Student's t-test was conducted. Differences were considered significant when p<0.05.
Results. […] FIG. 1A-N represents in vivo inhibition of tumor growth during the treatment with GHRH antagonist MIA-602 and selected AVR antagonists in nude mice xenografted with various human tumors including pancreatic cancer PANC-1 (FIG. 1A) and CFPAC-1 (FIG. 1I); lung cancer HCC827 (FIGS. 1B, C) and H460 (FIG. 1H); stomach cancer N87 (FIGS. 1D-F); colon cancer HT-29 (FIG. 1G); breast cancer MX-1 and HCC-1806 (FIGS. 1J, K); ovarian cancer SK-OV-3 and OVACAR-3 (FIGS. 1 L, M) and prostate cancer PC3 (FIG. 1N). See also Table 5.

[4] = Table 4D, Stomach Ca N87, 10 weeks
[5] = Table 4F, Stomach Ca N87, 4 weeks

## CCCC[C@H](NC(=O)[C@@H](NC(=O)[C@H](CC(=O)O)NC(=O)[C@H](CCC(N)=O)NC(=O)[C@H](CC(C)C)NC(=O)[C@H](CC(C)C)NC(=O)[C@H](CCCCN)NC(=O)[C@H](CCCNC(=N)N)NC(=O)[C@H](C)NC(=O)[C@H](CO)NC(=O)[C@H](CC(C)C)NC(=O)[C@H](CCC(N)=O)NC(=O)[C@H](CC)NC(=O)[C@H](CC(C)C)NC(=O)[C@@H](NC(=O)[C@H](CCCCN)NC(=O)[C@H](CCCNC(=N)N)NC(=O)[C@H](Cc1ccc(OC)cc1)NC(=O)[C@H](CCCCNC(=N)N)NC(=O)[C@H](C)NC(=O)[C@@H](NC(=O)[C@H](Cc1c(F)c(F)c(F)c(F)c1F)NC(=O)[C@@H](NC(=O)[C@H](C)NC(=O)[C@H](CC(=O)O)NC(=O)[C@@H](CCCNC(=N)N)NC(=O)[C@H](Cc1ccc(O)cc1)NC(=O)CCCCCCCCCCCNC(=O)Cc1c(F)c(F)c(F)c(F)c1F)[C@@H](C)CC)[C@@H](C)O)C(C)C)[C@@H](C)CC)C(=O)N[C@H](CCCNC(=N)N)C(=O)N[C@@H](CCCCNC(=N)N)C(=O)NC [AVR-235] ({Phenylacetyl(2,3,4,5,6-F5)-12Ado}-Y[dR]DAI[Phe(F5)]TA[hArg]Y(Me)RKVL[Abu]QLSARKLLQDI[Nle][dR][hArg]-NHMe)
[1]; Table 3B, 5 μM for 72 H, MIA-602 = 1
  In vitro relative inhibitory potency in comparison to MIA-602, HCC827: 1.08
[1]; antagonist 5 μM for 72 h, cell proliferation assay, MIA602 = 1
  relative inhibitory potency in comparison to MIA-602, Lung IICC827: 1.506
[2]; analogs 20 nM, then with 1 nM GHRH(1-29)NH2 for 30 minutes, Control = 1.00
  Relative GH release: 0.60 ± 0.02
[2]; rat pituitary cells in vitro, 20 nM
  inhibitory effects on the release of GH, compared with MIA-602 (in words): higher inhibitory effects than MIA-602
[3]; [4]
  Tumor Size (mm^3): 558.60 mm^3
  % Inhibition: 54.4%
[3]; [5]
  Tumor Growth %: 312.80%
  % Inhibition: 64.9%
